# Source: patent publication US20220031680A1, “Donecopride As Neuroprotective Agent In the Treatment of Neurodegenerative Diseases” (priority 2018, published 2022)
# Assays:
# [1] = tested on: Tau (AT100); assay: Phosphorylation of Tau (AT100) in MAP-2 hippocampal neurons injured with Aβ1-42; format: cell-based, rat; conditions: Aβ1-42 injured hippocampal neurons; for effect on Tau hyperphosphorylation: Example 4
# Method: (§1) The hippocampal neurons were exposed with Aβ solutions (see below) after 17 days of culture. The Aβ1-42 preparation was done following the procedure described by Callizot et al. (2013) J. Neurosci. Res. 91706-716. Briefly, Aβ1-42 peptide was dissolved in the defined culture medium mentioned above, at an initial concentration of 40 μM. This solution was gently agitated for 3 days at 37° C. in the dark and immediately used after being properly diluted in culture medium to the concentrations used (20 μM (plate 1) or 2.5 μM (plate 2) corresponding to 2 μM or 0.25 μM of oligomers (AβO) respectively).
# (§2) Donecopride fumarate was solved in culture medium and preincubated 1 h before Aβ application. Aβ1-42 preparation was added to a final concentration of 20 or 2.5 μM (=2 μM or 0.25 μM of AβO, evaluated by automatic Western Blot) diluted in control medium in presence of Donecopride.
# (§3) 24 hours after intoxication, the hippocampal neurons were fixed by a cold solution of ethanol (95%) and acetic acid (5%) for 5 min at −20° C. After permeabilization with 0.1% of saponin, cells were incubated for 2 h with:
# b) mouse monoclonal antibody anti-phospho Tau (AT100) at dilution of 1/400 in PBS containing 1% fetal calf serum and 0.1% of saponin.
# (§4) For each condition, 30 pictures (representative of the whole well area) per well were taken using ImageXpress (Molecular Devices) at 20× magnification. All images were taken with the same acquisition parameters. Analyses were performed automatically by using Custom Module Editor (Molecular Devices).
# (§5) The following endpoints were assessed: • Total number of neurons (neuron survival, number of MAP-2 positive neurons) • Neurite network (in μm of MAP-2 positive neurons) • area of tau in neurons (μm^2, overlapping with MAP-2 positive neurons).
# (§6) Injury: The hippocampal neurons were exposed with Aβ solutions (see below) after 17 days of culture. The Aβ1-42 preparation was done following the procedure described by Callizot et al. (2013) J. Neurosci. Res. 91:706-716. The batch number of the Aβ1-42 used in this study contains 10% of oligomers (quantification by WB as performed in Combes et al. (2015) J. Neurosci. Res. 93:633-643). Briefly, Aβ1-42 peptide was dissolved in the defined culture medium mentioned above, at an initial concentration of 40 μmol/1. This solution was gently agitated for 3 days at 37° C. in the dark and immediately used after being properly diluted in culture medium to the concentrations used (20 μmol/l or 2.5 μmol/l corresponding to 2 μmol/l or 0.25 μmol/l of oligomers (AβO) respectively). Aβ1-42 preparation was added to a final concentration of 20 or 2.5 μmol/l (respectively 2 μmol/l or 0.25 μmol/l of AβO, determined by automatic WB) diluted in control medium in presence of the compounds.
# Immunostaining: MAP-2/AT100—After fixation and permeabilization, cells were incubated for 2 hours with: • a chicken polyclonal antibody anti microtubule-associated-protein 2 (MAP-2) at dilution of 1/1000 in PBS containing 1% fetal calf serum and 0.1% saponin (this antibody stains specifically cell bodies and neurites, allowing study of neuronal cell death and neurite network); and • a mouse monoclonal antibody anti-phospho Tau (AT100) at dilution of 1/100 in PBS containing 1% fetal calf serum and 0.1% saponin.
# For each condition, 30 pictures (representative of the whole well area) per well were taken using ImageXpress® (Molecular Devices) with 20× magnification. All images were generated using the same acquisition parameters. From images, analyses were directly and automatically performed by Custom Module Editor® (Molecular Devices). The following read-outs were investigated: • Total number of neurons (neuron survival, number of MAP-2 positive neurons) • Neurite network (in μm of MAP-2 positive neurons) • Area of AT100 (μm^2, overlapping with MAP-2 positive neurons).
# [2] = tested on: rat primary hippocampal neurons injured with Aβ 1-42; assay: Survival and neurite network of MAP-2 neurons in primary hippocampal neurons injured with Aβ1-42; format: cell-based
# Method: Rat hippocampal neurons were cultured as described by Callizot et al. (2013) J. Neurosci. Res. 91706-716. Pregnant female rats of 17 days gestation (Rats Wistar; Janvier Labs France) were killed using a deep anesthesia with CO2 chamber followed by a cervical dislocation. Then, fetuses were removed from the uterus and immediately placed in ice-cold L15 Leibovitz medium with a 2% penicillin (10,000 U/ml) and streptomycin (10 mg/ml) solution (PS) and 1% bovine serum albumin (BSA). Hippocampal neurons were treated for 20 min at 37° C. with a trypsin-EDTA solution at a final concentration of 0.05% trypsin and 0.02% EDTA. The dissociation was stopped by adding Dulbecco's modified Eagle's medium (DMEM) with 4.5 g/l of glucose, containing DNAse I grade II (final concentration 0.5 mg/ml) and 10% fetal calf serum (FCS). Cells were mechanically dissociated by three forced passages through the tip of a 10-ml pipette and then centrifuged at 515×g for 10 min at 4° C. The supernatant was discarded, and the pellet was resuspended in a defined culture medium consisting of Neurobasal medium with a 2% solution of B27 supplement, 2 mmol/l of L-glutamine, 2% of PS solution, and 10 ng/ml of brain-derived neurotrophic factor (BDNF). Viable cells were counted in a Neubauer cytometer, using the trypan blue exclusion test. Cells were seeded at a density of 20,000 per well in 96-well plates precoated with poly-L-lysine and cultured at 37° C. in an air (95%)-CO2 (5%) incubator. The medium was changed every 2 days.
# as §1, §2
# Donecopride fumarate (Donecopride) was tested on one culture in a 96 well plate (6 wells per conditions). The compound was preincubated one hour before Aβ application. The following conditions were assessed:
# as §3
# a) chicken polyclonal antibody anti microtubule-associated-protein 2 (MAP-2), diluted at 1/1000 in PBS containing 1% fetal calf serum and 0.1% of saponin (this antibody allows the specific staining of neuronal cell bodies and neurites; and allow the study of neuronal cell death and neurite network).
# as §4, §5
# All values are expressed as mean+/−SEM. Statistical analysis was performed by one-way ANOVA, followed by PLSD Fisher's test, p<0.05 were considered significant.
# Rat hippocampal neurons were cultured as described by Callizot et al. (2013) J. Neurosci. Res. 91:706-716. […]
# [3] = tested on: rat primary hippocampal neurons injured with Aβ 1-42; assay: Number of synapses (PSD95/SYN overlap) in primary hippocampal neurons injured with Aβ1-42; format: cell-based
# Method: as §1, §2, §3
# a) mouse monoclonal antibody anti post synaptic density 95 kDa (PSD95) at a dilution of 1/100 in PBS containing 1% fetal calf serum and 0.1% of saponin.
# b) Rabbit polyclonal antibody anti-synaptophysin (SYN) at the dilution of 1/100 in PBS containing 1% fetal calf serum and 0.1% of saponin.
# For each condition, 40 pictures per well were taken using ImageXpress (Molecular Devices) with 40× magnification. All images were taken with the same acquisition parameters.
# Synapses evaluation was performed automatically by using Custom module editor (Molecular Devices).
# The following endpoints were assessed: • Total number of synapses (overlapping between PSD95/SYN).
# To assess the formation of synapses, the distribution of PSD-95, a post-synaptic marker, and synaptophysin, a pre-synaptic marker, was studied. A structure positive for both PD-95 and synaptophysin staining was considered as a synapse.
# as §6
# Immunostaining: PSD95 and SYN—After fixation and permeabilization, cells were incubated for 2 hours with: • mouse monoclonal antibody anti post synaptic density 95 kDa (PSD95) at dilution of 1/200 in PBS containing 1% fetal calf serum and 0.1% saponin; • rabbit polyclonal antibody anti-synaptophysin (SYN) at the dilution of 1/100 in PBS containing 1% fetal calf serum and 0.1% saponin.
# For each condition, 40 pictures per well were taken using ImageXpress (Molecular Devices) with 40× magnification. All images were taken with the same conditions. Synapses evaluation were performed automatically by using Custom Module Editor® (Molecular Devices). The following endpoints were assessed: • Number of synapses (overlapping between PSD95/SYN)
# [4] = Aβ1-42 injured hippocampal neurons, Example 4
SMILES,effect on Tau hyperphosphorylation [1],"neuroprotective effect (survival, neurite and synaptic network) [2, 4]",doses increasing the number of synapses ([3]; Aβ1-42 injured hippocampal neurons (FIG. 6)),"concentration with neuroprotective effect on synapses ([3]; Aβ1-42 injured hippocampal neurons, Example 5 (FIG. 10))",concentration with significant reduction of Tau hyperphosphorylation ([1]; Example 5 (FIG. 9D)),doses with neuroprotective effect on survival ([2]; Aβ1-42 injured hippocampal neurons (FIG. 5A)),neurite length normalized by number of neurons (neuritic growth) ([2]; Aβ1-42 injured hippocampal neurons (FIG. 5C)),"effect on neurite network [2, 4]","concentration up to which active (survival and neurite network) ([2]; Aβ1-42 injured hippocampal neurons, Example 5 (FIG. 9A,B,C))"
COc1cc(N)c(Cl)cc1C(=O)CCC1CCN(CC2CCNCC2)CC1 [MR31176],significant effect on Tau hyperphosphorylation was also observed at high concentration,neuroprotective effect at high concentrations,–,–,–,–,–,–,–
COc1cc(N)c(Cl)cc1C(=O)CCC1CCN(CC2CCCCCC2)CC1 [MR31192],important effect,very strong neuroprotective effect at very low doses,1 to 5 nM,500 pM,100 pM,1 to 5 nM,neurotrophic effect,very large effect was also observed on neurite network at every tested dose,≤ 500 µM
